This assay deals with T1, ITK (Homo sapiens, UniProt Q08881).
T1 sequence (Q08881 1-620): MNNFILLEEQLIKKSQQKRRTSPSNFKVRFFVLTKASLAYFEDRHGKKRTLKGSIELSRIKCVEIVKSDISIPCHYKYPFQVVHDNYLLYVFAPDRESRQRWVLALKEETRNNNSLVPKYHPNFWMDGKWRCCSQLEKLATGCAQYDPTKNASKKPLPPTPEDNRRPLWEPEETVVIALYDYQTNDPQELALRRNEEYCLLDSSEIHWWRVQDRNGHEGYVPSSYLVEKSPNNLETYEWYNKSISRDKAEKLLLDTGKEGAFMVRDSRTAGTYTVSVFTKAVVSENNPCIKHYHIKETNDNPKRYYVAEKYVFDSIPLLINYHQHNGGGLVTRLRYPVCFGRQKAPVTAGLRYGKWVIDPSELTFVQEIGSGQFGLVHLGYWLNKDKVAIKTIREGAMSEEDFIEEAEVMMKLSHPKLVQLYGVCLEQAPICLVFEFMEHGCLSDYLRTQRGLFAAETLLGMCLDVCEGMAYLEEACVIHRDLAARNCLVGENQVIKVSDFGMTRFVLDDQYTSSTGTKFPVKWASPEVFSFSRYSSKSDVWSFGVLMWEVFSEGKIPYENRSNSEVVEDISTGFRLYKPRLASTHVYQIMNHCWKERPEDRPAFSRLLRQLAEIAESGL
Description: ITK degradation HiBiT assay. The assay is classed as cell-based. On the set-up: expressed in transfected cells; host or cells: Molt4 (ATCC CRL-1552), monoclonal clone 1C10, engineered to carry the HiBiT tag. To be noted: 4 hrs; for Dmax: MOLT-4, C-terminal HiBiT-tagged Molt4 cells; for DC50: C-terminal HiBiT-tagged Molt4 cells. The procedure: Itk Degradation Hibit Assay
Compounds provided herein were assayed in vitro with ITK HiBit cell lines. Compound dilution series (11-point, 5 fold dilutions in DMSO, columns 2-12 with replicate in rows A/B, C/D, E/F, G,H at 2000× the final required concentrations were prepared in 96 well plates (Falcon, cat. no. 353077). Column 1, rows A-H were control DMSO. The 2000× solutions ranged from 2 mM to 1.024 nM (final assay concentration range 1 μM to […]). The 2000× solutions were added to cells in […], for a final DMSO concentration of 0.5% and final assay compound concentration of 1×. For the cells, C-terminal HiBiT-tagged Molt4 cells (ATCC CRL-1552, monoclonal cell line clone 1C10) were plated at 1×10^6 cells/mL, 100 μL/well ([…]) in complete RPMI (10% FBS, 1% L-glutamine). The cells were incubated with compound 10 and compound 17 for 4 hrs at […]/6% CO2.
Following incubation, 100 μL of complete Nano-Glo HiBiT Lytic Detection Reagent (Nano-Glo HiBiT Lytic Buffer with 1:50 Nano-Glo HiBiT Lytic Substrate and 1:100 LgBiT Protein; Promega cat. no. N3040) was added. Cells were further incubated for 10 min at room temperature (RT). Luminescence units (LU) were read on an EnVision plate reader (Perkin Elmer, 0.1 sec per well). Percent ITK remaining per sample was calculated as follows: […]
Using Graphpad Prism, % ITK remaining values were plotted as a function of compound concentration. To determine DC50 and Dmax values, resulting curves were fit to the Prism curve-fitting equation “log(inhibitor) vs response—Variable slope (four parameters)” (reported best fit value IC50 used as DC50). ITK was measured with antibody-based MSD (Meso-Scale Discovery) assays shown below.
A general note: The HiBiT peptide binds its large partner to form an active luciferase.

This is an account of results in US20240279202A1 (NURIX THERAPEUTICS, INC., priority 2021, published 2024).

The Dmax is the greatest extent of degradation seen. Higher therefore signals deep degradation. As for `C[C@@]12Cc3[nH]nc(C(=O)Nc4cnn(CC5CCN(C(=O)C6CCN(c7ccc(N8CCC(=O)NC8=O)cc7)CC6)CC5)c4)c3C[C@@H]1C2(F)F` [Compound 172], the Dmax stood at 75%.
Broadly, the DC50 is the concentration giving 50% degradation. The low end stands for a more potent degrader, the high end for a less potent degrader. With `C[C@@]12Cc3[nH]nc(C(=O)Nc4cnn(CC5CCN(CC6CCN(c7ccc(C8CCC(=O)NC8=O)cc7)CC6)CC5)c4)c3C[C@@H]1C2(F)F` (mixture of isomers) [Compound 119, (4aS,5aR)-N-[1-({1-[(1-{4-[(3RS)-2,6-dioxopiperidin-3-yl]phenyl}piperidin-4-yl)methyl]piperidin-4-yl}methyl)-1H-pyrazol-4-yl]-5,5-difluoro-5a-methyl-1H,4H,4aH,5H,5aH,6H-cyclopropa[f]indazole-3-carboxamide], the 50% degradation concentration (DC50) is 0.041 nM and the greatest degradation seen (Dmax) stood at 85%.
The matching figures for `C[C@@]12Cc3[nH]nc(C(=O)Nc4cnn(CC5CCN(CC6CCN(c7ccc(C8CCC(=O)NC8=O)cn7)CC6)CC5)c4)c3C[C@@H]1C2(F)F` (mixture of isomers) [Compound 120, (4aS,5aR)-N-[1-({1-[(1-{5-[(3RS)-2,6-dioxopiperidin-3-yl]pyridin-2-yl}piperidin-4-yl)methyl]piperidin-4-yl}methyl)-1H-pyrazol-4-yl]-5,5-difluoro-5a-methyl-1H,4H,4aH,5H,5aH,6H-cyclopropa[f]indazole-3-carboxamide]: 0.049 nM and 84%.
Compound `C[C@@H](C(=O)N(C)c1ccc2cc(-c3n[nH]c4c3C[C@@H]3C(F)(F)[C@]3(C)C4)[nH]c2c1)N1CCN(CC2CCN(c3cc(C4CCC(=O)NC4=O)ccn3)CC2)CC1` (stereo partly drawn) [Compound 23, (2S)—N-(2-((4aS,5aR)-5,5-difluoro-5a-methyl-1,4,4a,5,5a,6-hexahydrocyclopropa[f]indazol-3-yl)-1H-indol-6-yl)-2-(4-((1-(4-(2,6-dioxopiperidin-3-yl)pyridin-2-yl)piperidin-4-yl)methyl)piperazin-1-yl)-N-methylpropanamide] gave a DC50 of less than 0.001 nM and a maximal degradation (Dmax) of 82%.
Regarding `C[C@@]12Cc3[nH]nc(-c4cc5cc(C(=O)N6CCN(C[C@H]7CCN(c8ccc(C9CCC(=O)NC9=O)cc8)C7)CC6)ccc5[nH]4)c3C[C@@H]1C2(F)F` (stereo partly shown) [Compound 147], the Dmax was 81%.
Turning to `C[C@@]12Cc3[nH]nc(C(=O)Nc4cnn(C5CCN(CC6CCN(c7ccc(N8CCC(=O)NC8=O)cc7)C6)CC5)c4)c3C[C@@H]1C2(F)F` (stereo partly drawn) [Compound 209, (4aS,5aR)-N-(1-(1-((1-(4-(2,4-dioxotetrahydropyrimidin-1(2H)-yl)phenyl)pyrrolidin-3-yl)methyl)piperidin-4-yl)-1H-pyrazol-4-yl)-5,5-difluoro-5a-methyl-1,4,4a,5,5a,6-hexahydrocyclopropa[f]indazole-3-carboxamide], the DC50 is 0.345 nM and the Dmax came to 78%.
In the case of `CN(C(=O)C1CCN(CC2CCN(c3ccc(C4CCC(=O)NC4=O)cn3)CC2)CC1)c1ccc2cc(-c3n[nH]c4c3C[C@@H]3C(F)(F)[C@]3(C)C4)[nH]c2c1` (stereo partly drawn) [Compound 74, N-(2-((4aS,5aR)-5,5-difluoro-5a-methyl-1,4,4a,5,5a,6-hexahydrocyclopropa[f]indazol-3-yl)-1H-indol-6-yl)-1-((1-(5-(2,6-dioxopiperidin-3-yl)pyridin-2-yl)piperidin-4-yl)methyl)-N-methylpiperidine-4-carboxamide], half-maximal degradation (DC50) was put at 10.5 nM.
As for `C[C@@]12Cc3[nH]nc(C(=O)Nc4cnn(C5CCN(CC6CCN(c7ccc(C8CCC(=O)NC8=O)cn7)CC6)CC5)c4)c3C[C@@H]1C2(F)F` (mixture of isomers) [Compound 114, (4aS,5aR)-N-(1-{1-[(1-{5-[(3RS)-2,6-dioxopiperidin-3-yl]pyridin-2-yl}piperidin-4-yl)methyl]piperidin-4-yl}-1H-pyrazol-4-yl)-5,5-difluoro-5a-methyl-1H,4H,4aH,5H,5aH,6H-cyclopropa[f]indazole-3-carboxamide], the DC50 is 0.002 nM and the greatest degradation seen (Dmax) worked out at 87%.
With `C[C@@]12Cc3[nH]nc(C(=O)Nc4cnn([C@H]5CCN(C[C@H]6CCN(c7ccc(C8CCC(=O)NC8=O)cc7)C6)C[C@@H]5F)c4)c3C[C@@H]1C2(F)F` (stereo partly drawn) [Compound 98, (4aS,5aR)-N-(1-((3S,4S)-1-(((3R)-1-(4-(2,6-dioxopiperidin-3-yl)phenyl)pyrrolidin-3-yl)methyl)-3-fluoropiperidin-4-yl)-1H-pyrazol-4-yl)-5,5-difluoro-5a-methyl-1,4,4a,5,5a,6-hexahydrocyclopropa[f]indazole-3-carboxamide], it took 0.7 nM to reach half-maximal degradation (DC50) and the maximal degradation (Dmax) was 89%.
Regarding `Cn1c(=O)n(C2CCC(=O)NC2=O)c2cccc(N3CCC(C(=O)N4CCC(n5cc(NC(=O)c6n[nH]c7c6C[C@@H]6C(F)(F)[C@]6(C)C7)cn5)CC4)CC3)c21` (mixture of isomers) [Compound 171], the greatest degradation seen (Dmax) is 88%.
`C[C@@]12Cc3[nH]nc(C(=O)Nc4cnn(C5CCN(C(=O)CC6CCN(c7ccc(C8CCC(=O)NC8=O)cn7)CC6)CC5)c4)c3C[C@@H]1C2(F)F` (mixture of isomers) [Compound 166] returned a Dmax of 88%.
Compound `CC1(C)CCc2c(-c3cc4ccc(C(=O)N5CCC(CN6CCN(c7cc(C8CCC(=O)NC8=O)ccn7)CC6)CC5)cc4[nH]3)n[nH]c2C1` (stereo not shown) [Compound 214, 3-{2-[4-({1-[2-(6,6-dimethyl-1,4,5,7-tetrahydroindazol-3-yl)-1H-indole-6-carbonyl]piperidin-4-yl}methyl)piperazin-1-yl]pyridin-4-yl}piperidine-2,6-dione] returned a DC50 of 36 nM and a Dmax of 53%.
Regarding `C[C@@]12Cc3[nH]nc(C(=O)Nc4cnn(C5CCN(C(=O)C6CCN(c7ccc(C(=O)NC8CCC(=O)NC8=O)nc7)CC6)CC5)c4)c3C[C@@H]1C2(F)F` (mixture of isomers) [Compound 180], the Dmax is 72%.
In turn, `Cn1c(=O)n(C2CCC(=O)NC2=O)c2cccc(N3CCC(CN4CC(n5cc(NC(=O)c6n[nH]c7c6C[C@@H]6C(F)(F)[C@]6(C)C7)cn5)C4)CC3)c21` (stereo partly drawn) [Compound 57, (4aS,5aR)-N-(1-(1-((1-(1-(2,6-dioxopiperidin-3-yl)-3-methyl-2-oxo-2,3-dihydro-1H-benzo[d]imidazol-4-yl)piperidin-4-yl)methyl)azetidin-3-yl)-1H-pyrazol-4-yl)-5,5-difluoro-5a-methyl-1,4,4a,5,5a,6-hexahydrocyclopropa[f]indazole-3-carboxamide] came in with a DC50 of less than 0.01 nM and a Dmax of 90%.
In turn, `CC1(C)CCc2c(-c3cc4ccc(C(=O)N5CCN(CC6CCN(c7ccc(C8CCC(=O)NC8=O)cc7F)CC6)CC5)cc4[nH]3)n[nH]c2C1` (stereo not shown) [Compound 222, 3-{4-[4-({4-[2-(6,6-dimethyl-1,4,5,7-tetrahydroindazol-3-yl)-1H-indole-6-carbonyl]piperazin-1-yl}methyl)piperidin-1-yl]-3-fluorophenyl}piperidine-2,6-dione] gave a half-maximal degradation concentration (DC50) of 1.42 nM and a maximal degradation (Dmax) of 75%.
Consider `C[C@@]12Cc3[nH]nc(C(=O)Nc4cnn(C5CCC(CN6CCc7cc(C8CCC(=O)NC8=O)ccc7C6)CC5)c4)c3C[C@@H]1C2(F)F` (mixture of isomers) [Compound 123, (4aS,5aR)-5,5-difluoro-5a-methyl-N-{1-[(lsr,4sr)-4-({6-[(3RS)-2,6-dioxopiperidin-3-yl]-1,2,3,4-tetrahydroisoquinolin-2-yl}methyl)cyclohexyl]-1H-pyrazol-4-yl}-1H,4H,4aH,5H,5aH,6H-cyclopropa[f]indazole-3-carboxamide], for which the DC50 came to 63.1 nM and the Dmax came out at 63%.
Consider `C[C@@]12Cc3[nH]nc(C(=O)Nc4cnn(CC5CCN(C(=O)C6CCN(c7ccc(C8CCC(=O)NC8=O)cc7)CC6)CC5)c4)c3C[C@@H]1C2(F)F` (mixture of isomers) [Compound 173], for which the greatest degradation seen (Dmax) was found to be 87%.
On the same count and under the same terms, for `CC1(C)CCc2c(-c3cc4ccc(C(=O)N5CCN(CC6CCN(c7ncc(C8CCC(=O)NC8=O)cn7)CC6)CC5)cc4[nH]3)n[nH]c2C1` (stereo not shown) [Compound 187] the value was 70%.
